Source: patent US20250115582A1, “MOLECULAR GLUE DEGRADERS AND METHODS OF USING THE SAME” (Monte Rosa Therapeutics, Inc., priority 2022, published 2025)

Assays:
[1] = molecular target: T1, CK1a (Homo sapiens, UniProt P48729+Q96SW2); assay: Western blot assay of CK1a levels in HEK293 and HEK293 CRBN knock-out cells; type: cell-based; settings: 0.1, 1, 10 μM, 24 hours
T1 construct: host or cells: HEK293 and HEK293 CRBN knock-out clone B2 (generated internally)
Method: FIG. 1 depicts effects of Compound 147 on CK1a levels in an HEK293 cell line in comparison to effects of Compound 147 on CK1a levels in a cereblon (CRBN) knock-out HEK293 cell line.
HEK293 cell line was purchased from ATCC (CRL-1573). HEK293 CRBN knock out (k/o) cell line (B2) was generated internally using CRISPR/Cas9 method and clonally expanded. Cells were plated at 2×10^5 cells per well in 6-well tissue culture plates (VWR) in 2 ml of DMEM media (Gibco) containing 10% FBS (Gibco), and incubated for 16 hours at 37° C., 5% CO2. Compounds were added to final concentration of 0.1 μM, 1 μM, 10 μM (DMSO concentration was kept constant at 0.1%), following incubation at 37° C., 5% CO2 for additional 24 hours. Cell lysis was performed using RIPA buffer (Pierce) containing Halt™ Protease Inhibitor Cocktail (ThermoFisher Scientific). Lysates were boiled at 95° C. for 10 minutes and 12 μg of protein lysate per sample was resolved by SDS-PAGE using 12% gels (BioRad) and transferred to nitrocellulose membrane (BioRad). Membranes were blocked using LI-COR blocking buffer (LI-COR) at room temperature for 1 hour, followed by overnight incubation with rabbit anti-CK1a (Abcam ab206652), rabbit anti-CRBN (Sigma HPA045910) and mouse anti-α-tubulin (Sigma T9026) antibodies at 4° C. […]

[2] = molecular target: CRBN/DDB1 (Homo sapiens, UniProt Q96SW2); assay: HTRF binding assay (thalidomide probe displacement from CRBN/DDB1); settings: CRBN/DDB1 2.5 nM, Cy5-Thalidomide 100 nM, 30 min; geometric mean; read-out: HTRF_Thali_Disp_DR—geo_IC50
How it was run: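 Displacement of Cy5-thalidomide probe (100 nM) from CRBN/DDB1 (2.5 nM) with anti-His Tb cryptate in 20 mM HEPES, 20 mM NaCl, 0.2 mM TCEP, 0.2 mM EDTA, 0.005% Tween20; 10-point 1:3 series, 30 min ambient. HTRF 665/620 ratio; IC50 by 4-parameter fit, Ki via Cheng-Prusoff.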

CRBN/DDB1, sequence (Q96SW2 whole entry): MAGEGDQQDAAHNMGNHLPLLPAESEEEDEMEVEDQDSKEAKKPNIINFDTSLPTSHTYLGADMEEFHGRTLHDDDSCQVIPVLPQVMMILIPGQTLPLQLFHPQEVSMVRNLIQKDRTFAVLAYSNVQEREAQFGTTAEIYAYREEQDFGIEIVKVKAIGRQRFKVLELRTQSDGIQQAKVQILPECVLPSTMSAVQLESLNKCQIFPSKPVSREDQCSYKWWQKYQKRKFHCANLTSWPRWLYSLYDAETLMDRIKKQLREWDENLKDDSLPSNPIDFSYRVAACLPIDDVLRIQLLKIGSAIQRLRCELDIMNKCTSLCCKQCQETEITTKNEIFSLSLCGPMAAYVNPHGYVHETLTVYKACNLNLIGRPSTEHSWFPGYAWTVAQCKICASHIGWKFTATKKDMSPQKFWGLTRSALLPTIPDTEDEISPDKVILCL
CRBN/DDB1, sequence (Q16531 whole entry partner): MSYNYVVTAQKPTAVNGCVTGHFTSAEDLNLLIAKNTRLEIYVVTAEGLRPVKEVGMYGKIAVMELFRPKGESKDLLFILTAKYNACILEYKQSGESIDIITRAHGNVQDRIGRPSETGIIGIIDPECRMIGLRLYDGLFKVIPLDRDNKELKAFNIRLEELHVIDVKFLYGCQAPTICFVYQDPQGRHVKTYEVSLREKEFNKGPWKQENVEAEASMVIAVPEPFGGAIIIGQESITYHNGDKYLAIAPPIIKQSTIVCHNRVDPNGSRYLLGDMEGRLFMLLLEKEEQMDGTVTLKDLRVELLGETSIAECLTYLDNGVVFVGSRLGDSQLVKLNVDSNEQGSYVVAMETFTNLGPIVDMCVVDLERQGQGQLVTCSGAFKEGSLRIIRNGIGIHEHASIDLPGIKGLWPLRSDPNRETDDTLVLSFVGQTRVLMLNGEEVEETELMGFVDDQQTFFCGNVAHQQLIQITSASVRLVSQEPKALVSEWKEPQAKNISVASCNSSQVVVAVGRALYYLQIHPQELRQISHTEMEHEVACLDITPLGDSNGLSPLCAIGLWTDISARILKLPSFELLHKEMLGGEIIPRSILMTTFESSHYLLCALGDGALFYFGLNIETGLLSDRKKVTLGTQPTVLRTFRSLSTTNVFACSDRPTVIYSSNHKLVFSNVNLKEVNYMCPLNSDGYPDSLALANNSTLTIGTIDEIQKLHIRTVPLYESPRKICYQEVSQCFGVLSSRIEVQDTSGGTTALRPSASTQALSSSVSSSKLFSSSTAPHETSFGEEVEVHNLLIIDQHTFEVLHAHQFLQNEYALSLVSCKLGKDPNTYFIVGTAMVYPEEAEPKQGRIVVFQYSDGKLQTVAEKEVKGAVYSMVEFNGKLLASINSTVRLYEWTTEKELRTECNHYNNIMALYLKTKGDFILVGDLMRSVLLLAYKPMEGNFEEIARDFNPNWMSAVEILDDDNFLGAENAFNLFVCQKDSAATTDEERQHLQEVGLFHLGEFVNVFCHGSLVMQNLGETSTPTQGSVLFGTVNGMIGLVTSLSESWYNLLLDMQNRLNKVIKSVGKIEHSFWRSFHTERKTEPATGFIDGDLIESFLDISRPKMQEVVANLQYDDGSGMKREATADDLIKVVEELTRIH
T1 sequence (P48729 whole entry): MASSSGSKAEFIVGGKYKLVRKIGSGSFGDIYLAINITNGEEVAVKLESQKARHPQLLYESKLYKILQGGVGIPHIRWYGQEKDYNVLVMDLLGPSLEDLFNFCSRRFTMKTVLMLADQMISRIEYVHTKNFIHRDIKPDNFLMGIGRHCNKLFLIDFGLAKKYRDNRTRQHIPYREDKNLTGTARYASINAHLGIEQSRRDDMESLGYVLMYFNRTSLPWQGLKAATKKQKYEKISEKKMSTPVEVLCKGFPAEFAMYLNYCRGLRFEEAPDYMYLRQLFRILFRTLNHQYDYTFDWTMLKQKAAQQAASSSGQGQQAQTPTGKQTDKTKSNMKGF
T1 sequence (Q96SW2 whole entry): as the sequence (Q96SW2 whole entry) above
T1 sequence (Q16531 2-1140 partner limits assumed): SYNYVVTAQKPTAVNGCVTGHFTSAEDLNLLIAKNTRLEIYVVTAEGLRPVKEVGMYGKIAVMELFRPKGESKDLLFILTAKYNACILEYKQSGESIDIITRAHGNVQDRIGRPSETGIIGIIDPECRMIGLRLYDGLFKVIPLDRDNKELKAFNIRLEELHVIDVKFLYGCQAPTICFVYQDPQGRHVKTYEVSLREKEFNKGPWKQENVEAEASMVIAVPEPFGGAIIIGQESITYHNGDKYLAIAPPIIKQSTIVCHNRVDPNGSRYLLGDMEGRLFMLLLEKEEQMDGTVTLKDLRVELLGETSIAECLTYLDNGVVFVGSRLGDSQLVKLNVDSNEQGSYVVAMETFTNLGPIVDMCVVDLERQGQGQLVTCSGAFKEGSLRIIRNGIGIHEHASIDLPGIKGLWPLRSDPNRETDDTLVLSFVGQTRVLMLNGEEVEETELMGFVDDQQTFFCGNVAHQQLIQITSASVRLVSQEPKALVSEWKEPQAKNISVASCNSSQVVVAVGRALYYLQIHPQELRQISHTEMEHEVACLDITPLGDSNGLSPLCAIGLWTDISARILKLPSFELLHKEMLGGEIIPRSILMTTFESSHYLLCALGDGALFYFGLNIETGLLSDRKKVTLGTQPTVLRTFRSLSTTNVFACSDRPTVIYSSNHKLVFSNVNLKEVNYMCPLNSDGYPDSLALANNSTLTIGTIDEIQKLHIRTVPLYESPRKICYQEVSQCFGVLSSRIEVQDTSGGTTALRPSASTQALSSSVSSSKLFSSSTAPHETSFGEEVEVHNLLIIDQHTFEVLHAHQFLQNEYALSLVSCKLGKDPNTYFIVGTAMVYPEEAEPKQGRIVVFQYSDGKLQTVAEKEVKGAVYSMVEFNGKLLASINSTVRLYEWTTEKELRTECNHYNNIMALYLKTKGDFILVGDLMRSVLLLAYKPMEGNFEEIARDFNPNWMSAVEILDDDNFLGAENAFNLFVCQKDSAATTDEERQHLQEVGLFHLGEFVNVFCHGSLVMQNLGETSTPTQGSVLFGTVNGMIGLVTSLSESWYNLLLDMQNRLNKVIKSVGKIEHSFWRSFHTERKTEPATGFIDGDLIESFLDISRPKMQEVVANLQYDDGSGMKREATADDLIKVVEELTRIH

CK1a levels in cereblon (CRBN) knock-out HEK293 cell line (Western blot, FIG. 1) ([1]; HEK293 CRBN knock-out cell line) | CK1a levels in HEK293 cell line (Western blot, FIG. 1) ([1]; HEK293 cell line, cereblon present) | IC50 [2] [nM] | Compound
no effect on CK1a levels | decreases CK1a levels | 100 to 1000 | O=C1CCC(N2Cc3cc(NC(=O)c4ccc(Cl)cc4)ccc3C2=O)C(=O)N1 (stereo not shown) [Compound 147]
 |  | 100 to 1000 | O=C1CCC(N2Cc3cc(NC(=O)c4ncn(-c5ccccc5)c4C(F)(F)F)ccc3C2=O)C(=O)N1 (stereo not shown) [Compound 154, N-(2-(2,6-dioxopiperidin-3-yl)-1-oxoisoindolin-5-yl)-1-phenyl-5-(trifluoromethyl)-1H-imidazole-4-carboxamide]
